These results are taken from publication PMC5045423, “X66, a novel N-terminal heat shock protein 90 inhibitor, exerts antitumor effects without induction of heat shock response” (Oncotarget, 2016).

The structures appear in SMILES notation.

Assay [1] concerns the target T1, HSP90α (Homo sapiens, UniProt P07900). Description: streptavidin pull-down of purified full-length HSP90α and NTD, competed by excess soluble X66. Format: binding. Also on record: gene HSP90AA1; recombinant human full-length protein and its N-terminal fragment, but not the C-terminal fragment.
Assay [2] addresses T1, HSP90α. The experiment in a line: SPR (BIAcore […], immobilized full-length HSP90α); also competes with Biotin-X66 for the N-terminal domain in pull-down. Format: binding. Also on record: gene HSP90AA1; recombinant human full-length HSP90α. Background: SPR reads the build-up and loss of mass on a sensor chip optically.

On to `Cc1cc(C)n(-c2nc(NN=Cc3cn(C(=O)CCCC[C@@H]4SC[C@@H]5NC(=O)N[C@@H]54)c4ccccc34)nc(Nc3ccc(Br)cc3)n2)n1` [Biotin-X66], for which, at HSP90α [1], the “streptavidin pull-down of purified full-length HSP90α and NTD, competed by exces” value was “Biotin-X66 was able to isolate the recombinant human full-length protein and its N-terminal fragment, but not the C-terminal fragment”.

In the case of `Cc1cc(C)n(-c2nc(NN=Cc3c[nH]c4ccccc34)nc(Nc3ccc(Br)cc3)n2)n1` [X66, 4-(2-((1H-indol-3-yl)methylene)hydrazinyl)-N-(4-bromophenyl)-6-(3,5-dimethyl-1H -pyrazol-1-yl)-1,3,5-triazin-2-amine], the Kd – broadly, the equilibrium constant for the complex coming apart – at HSP90α [2] stood at 5.3 µM.
